Measurements published in PubChem BioAssay (NCI).
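Growth conditions: 96-well plates. Treatment: test compound, 48 hours, 5 concentrations. Analysis: linear interpolation between bracketing concentrations; unreached endpoints set to highest concentration. Abbreviation: GI50, concentration required for 50% inhibition of growth. At the TGI there is no net growth.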

Key:
Assay in all cases: NCI tumour cell line growth inhibition, 48 h
SW-620 colon = test system: SW-620 colon
786-0 renal = test system: 786-0 renal
KM12 colon = test system: KM12 colon
SNB-75 CNS = test system: SNB-75 CNS
OVCAR-8 ovarian = test system: OVCAR-8 ovarian
HCC-2998 colon = test system: HCC-2998 colon
UACC-62 melanoma = test system: UACC-62 melanoma
HS 578T breast = test system: HS 578T breast
NCI-H23 lung = test system: NCI-H23 lung
HT29 colon = test system: HT29 colon
CAKI-1 renal = test system: CAKI-1 renal
OVCAR-4 ovarian = test system: OVCAR-4 ovarian
OVCAR-3 ovarian = test system: OVCAR-3 ovarian
IGROV1 ovarian = test system: IGROV1 ovarian
SK-OV-3 ovarian = test system: SK-OV-3 ovarian
MOLT-4 leukemia = test system: MOLT-4 leukemia
A498 renal = test system: A498 renal
SR leukemia = test system: SR leukemia
RPMI-8226 leukemia = test system: RPMI-8226 leukemia
A549 NSCLC = test system: A549 NSCLC
SF-295 CNS = test system: SF-295 CNS
TK-10 renal = test system: TK-10 renal
UO-31 renal = test system: UO-31 renal
HL-60(TB) leukemia = test system: HL-60(TB) leukemia
UACC-257 melanoma = test system: UACC-257 melanoma
HOP-92 NSCLC = test system: HOP-92 NSCLC
SF-268 CNS = test system: SF-268 CNS
SK-MEL-28 melanoma = test system: SK-MEL-28 melanoma
CCRF-CEM leukemia = test system: CCRF-CEM leukemia
M14 melanoma = test system: M14 melanoma
HCT-116 colon = test system: HCT-116 colon
MCF7 breast = test system: MCF7 breast
OVCAR-5 ovarian = test system: OVCAR-5 ovarian
K-562 leukemia = test system: K-562 leukemia
LOX IMVI melanoma = test system: LOX IMVI melanoma
NCI-H522 lung = test system: NCI-H522 lung
MDA-MB-435 = test system: MDA-MB-435
SNB-19 CNS = test system: SNB-19 CNS
NCI/ADR-RES ovarian = test system: NCI/ADR-RES ovarian
RXF 393 renal = test system: RXF 393 renal
ACHN renal = test system: ACHN renal
DU-145 prostate = test system: DU-145 prostate
PC-3 prostate = test system: PC-3 prostate
MDA-MB-231 breast = test system: MDA-MB-231 breast
MALME-3M melanoma = test system: MALME-3M melanoma
SF-539 CNS = test system: SF-539 CNS
SK-MEL-2 melanoma = test system: SK-MEL-2 melanoma
U251 CNS = test system: U251 CNS
SK-MEL-5 melanoma = test system: SK-MEL-5 melanoma
HCT-15 colon = test system: HCT-15 colon
NCI-H460 lung = test system: NCI-H460 lung
SN12C renal = test system: SN12C renal
T-47D breast = test system: T-47D breast
BT-549 breast = test system: BT-549 breast
HOP-62 NSCLC = test system: HOP-62 NSCLC
EKVX NSCLC = test system: EKVX NSCLC
NCI-H226 lung = test system: NCI-H226 lung
COLO 205 colon = test system: COLO 205 colon

O=[N+]([O-])c1ccc2[nH]cc(-c3c4ccsc4cc4[nH]c5ccc([N+](=O)[O-])cc5c34)c2c1
GI50 (SW-620 colon): 1070 nM
TGI (SW-620 colon): 8370 nM
GI50 (786-0 renal): 877 nM
TGI (786-0 renal): 3520 nM
GI50 (KM12 colon): 770 nM
TGI (KM12 colon): 4210 nM
GI50 (SNB-75 CNS): 618 nM
TGI (SNB-75 CNS): 3030 nM
GI50 (OVCAR-8 ovarian): 1250 nM
TGI (OVCAR-8 ovarian): 19700 nM
GI50 (HCC-2998 colon): 1880 nM
TGI (HCC-2998 colon): 6270 nM
GI50 (UACC-62 melanoma): 641 nM
TGI (UACC-62 melanoma): 8010 nM
GI50 (HS 578T breast): 824 nM
TGI (HS 578T breast): 5490 nM
GI50 (NCI-H23 lung): 1210 nM
TGI (NCI-H23 lung): 5620 nM
GI50 (HT29 colon): 1210 nM
TGI (HT29 colon): 12500 nM
GI50 (CAKI-1 renal): 758 nM
TGI (CAKI-1 renal): 9940 nM
GI50 (OVCAR-4 ovarian): 1800 nM
TGI (OVCAR-4 ovarian): 9380 nM
GI50 (OVCAR-3 ovarian): 354 nM
TGI (OVCAR-3 ovarian): 1440 nM
GI50 (IGROV1 ovarian): 1650 nM
TGI (IGROV1 ovarian): 8520 nM
GI50 (SK-OV-3 ovarian): 1250 nM
TGI (SK-OV-3 ovarian): 7210 nM
GI50 (MOLT-4 leukemia): 1270 nM
TGI (MOLT-4 leukemia): 5500 nM
GI50 (A498 renal): 726 nM
TGI (A498 renal): 3130 nM
GI50 (SR leukemia): 419 nM
TGI (SR leukemia): 33300 nM
GI50 (RPMI-8226 leukemia): 1040 nM
TGI (RPMI-8226 leukemia): 5100 nM
GI50 (A549 NSCLC): 1120 nM
TGI (A549 NSCLC): 5400 nM
GI50 (SF-295 CNS): 629 nM
TGI (SF-295 CNS): 3090 nM
GI50 (TK-10 renal): 2850 nM
TGI (TK-10 renal): 18500 nM
GI50 (UO-31 renal): 827 nM
TGI (UO-31 renal): 5140 nM
GI50 (HL-60(TB) leukemia): 1100 nM
TGI (HL-60(TB) leukemia): 19400 nM
GI50 (UACC-257 melanoma): 2920 nM
TGI (UACC-257 melanoma): 10500 nM
GI50 (HOP-92 NSCLC): 882 nM
TGI (HOP-92 NSCLC): 6940 nM
GI50 (SF-268 CNS): 1390 nM
TGI (SF-268 CNS): 18500 nM
GI50 (SK-MEL-28 melanoma): 1380 nM
TGI (SK-MEL-28 melanoma): 6440 nM
GI50 (CCRF-CEM leukemia): 1050 nM
TGI (CCRF-CEM leukemia): 23300 nM
GI50 (M14 melanoma): 527 nM
TGI (M14 melanoma): 1390 nM
GI50 (HCT-116 colon): 865 nM
TGI (HCT-116 colon): 5370 nM
GI50 (MCF7 breast): 606 nM
TGI (MCF7 breast): 4750 nM
GI50 (OVCAR-5 ovarian): 1290 nM
TGI (OVCAR-5 ovarian): 7800 nM
GI50 (K-562 leukemia): 664 nM
TGI (K-562 leukemia): 12300 nM
GI50 (LOX IMVI melanoma): 834 nM
TGI (LOX IMVI melanoma): 5480 nM
GI50 (NCI-H522 lung): 423 nM
TGI (NCI-H522 lung): 3420 nM
GI50 (MDA-MB-435): 145 nM
TGI (MDA-MB-435): 33300 nM
GI50 (SNB-19 CNS): 1320 nM
TGI (SNB-19 CNS): 9130 nM
GI50 (NCI/ADR-RES ovarian): 744 nM
TGI (NCI/ADR-RES ovarian): 8220 nM
GI50 (RXF 393 renal): 592 nM
TGI (RXF 393 renal): 1850 nM
GI50 (ACHN renal): 1520 nM
TGI (ACHN renal): 14900 nM
GI50 (DU-145 prostate): 833 nM
TGI (DU-145 prostate): 2690 nM
GI50 (PC-3 prostate): 931 nM
TGI (PC-3 prostate): 6360 nM
GI50 (MDA-MB-231 breast): 1200 nM
TGI (MDA-MB-231 breast): 5750 nM
GI50 (MALME-3M melanoma): 898 nM
TGI (MALME-3M melanoma): 9440 nM
GI50 (SF-539 CNS): 697 nM
TGI (SF-539 CNS): 1910 nM
GI50 (SK-MEL-2 melanoma): 861 nM
TGI (SK-MEL-2 melanoma): 4180 nM
GI50 (U251 CNS): 1100 nM
TGI (U251 CNS): 16600 nM
GI50 (SK-MEL-5 melanoma): 394 nM
TGI (SK-MEL-5 melanoma): 2010 nM
GI50 (HCT-15 colon): 735 nM
TGI (HCT-15 colon): 9680 nM
GI50 (NCI-H460 lung): 922 nM
TGI (NCI-H460 lung): 4130 nM
GI50 (SN12C renal): 1430 nM
TGI (SN12C renal): 11400 nM
GI50 (T-47D breast): 864 nM
TGI (T-47D breast): 4460 nM
GI50 (BT-549 breast): 1490 nM
TGI (BT-549 breast): 6360 nM
GI50 (HOP-62 NSCLC): 1130 nM
TGI (HOP-62 NSCLC): 9250 nM
GI50 (EKVX NSCLC): 1560 nM
TGI (EKVX NSCLC): 11400 nM
GI50 (NCI-H226 lung): 967 nM
TGI (NCI-H226 lung): 3950 nM
GI50 (COLO 205 colon): 796 nM
TGI (COLO 205 colon): 2420 nM
